Assay results reported in EP2607478A1, “Phenanthroline treated MSC” (Universiteit Twente, priority 2011, dated 2013).
Entries after “also recorded” stand apart in the source; their conditions may differ.

Test system: MSCs
Assay: Whole genome expression analysis (Illumina microarray) of treated MSCs
Type: cell-based, Human
Procedure: MSCs were seeded in T25 flasks at 5000 cells/cm^2 and allowed to attach overnight in proliferation medium. […] After 48 hours, RNA was isolated as described above. From 500 ng of RNA, cRNA was synthesized using the Illumina TotalPrep RNA amplification Kit (Ambion), according to the manufacturer's protocol and the quality of RNA and cRNA was verified on a Bioanalyzer 2100 (Agilent). Microarrays were performed using Illumina HT-12 v4 expression Beadchips, according to the manufacturer's protocol. Briefly, 750 ng of cRNA was hybridized on the array overnight after which the array was washed and blocked. Then, by addition of streptavidin Cy-3 a fluorescent signal was developed. Arrays were scanned on an Illumina iScan reader and raw intensity values were background corrected in GenomeStudio (Illumina). Further data processing and statistical testing were performed with R and Bioconductor statistical software (www.bioconductor.org), using package lumi. Raw intensity values were transformed using variance stabilization and a quantile normalization was performed. A linear modelling approach with empirical Bayesian methods, as implemented in Limma package (54), was applied for differential expression analysis of the resulting probe-level expression values. A gene list, containing only those genes with an absolute 1.5-fold change between different treatments, was uploaded to Ingenuity Pathway Analysis (IPA) software and used for core analysis. Pathways or networks with a p-value of 0.05 were considered statistically significant.

## c1cnc2c(c1)ccc1cccnc12 [PHE, 1, 10-phenanthroline]
MSCs treated for two days, 150 µM DFO or 200 µM PHE
  interleukin-8 (Il-8) gene expression: highly induced
MSCs treated for two days, 150 µM DFO or 200 µM PHE, relative to basic medium
  expression of HRE-containing genes (metabolism, cell growth and survival, endothelial genes): most genes were strongest induced; also recorded: markedly induced higher expression
PHE compared to hypoxia or DFO-treated cells
  expression of RelA: higher
PHE-treated cells
  expression of P300: higher expression
ProbeID ILMN 2045419
  logFC(D142_PHE - D142_BAS) BNIP3L: 2,33
ProbeID ILMN 3188106
  logFC(D142_PHE - D142_BAS) CYTH2: 2,19
ProbeID ILMN_1651496
  logFC(D142_PHE - D142_BAS) HIST1H2BD: 3,85
ProbeID ILMN_1651958
  logFC(D142_PHE - D142_BAS) MGP: -2,09
ProbeID ILMN_1653292
  logFC(D142_PHE - D142_BAS) PFKFB4: 4,21
ProbeID ILMN_1653466
  logFC(D142_PHE - D142_BAS) HES4: 2,11
ProbeID ILMN_1655796
  logFC(D142_PHE - D142_BAS): 2,37
ProbeID ILMN_1655930
  logFC(D142_PHE - D142_BAS) ELL2: 2,00
ProbeID ILMN_1656057, PHE vs BAS
  logFC(D142_PHE - D142_BAS) PLAU: -3,95
ProbeID ILMN_1656501
  logFC(D142_PHE - D142_BAS) DUSP5: 3,07
ProbeID ILMN_1657683, PHE vs BAS
  logFC(D142_PHE - D142_BAS) C1orf198: -2,35
ProbeID ILMN_1657796
  logFC(D142_PHE - D142_BAS) STMN1: -2,32
ProbeID ILMN_1657962
  logFC(D142_PHE - D142_BAS) LOC728946: -2,02
ProbeID ILMN_1659027
  logFC(D142_PHE - D142_BAS) SLC2A1: 4,08
ProbeID ILMN_1659047
  logFC(D142_PHE - D142_BAS) HIST2H2AA3: 3,78
ProbeID ILMN_1659936
  logFC(D142_PHE - D142_BAS) PPP1R15A: 2,65
ProbeID ILMN_1659990
  logFC(D142_PHE - D142_BAS) C7orf68: 3,65
ProbeID ILMN_1660654
  logFC(D142_PHE - D142_BAS) CDCA2: 2,66
ProbeID ILMN_1660847
  logFC(D142_PHE - D142_BAS) PFKFB3: 3,69
ProbeID ILMN_1661346
  logFC(D142_PHE - D142_BAS) LOC648210: -2,02
ProbeID ILMN_1661599
  logFC(D142_PHE - D142_BAS) DDIT4: 4,48
ProbeID ILMN_1662619
  logFC(D142_PHE - D142_BAS) TFPI: 2,06
ProbeID ILMN_1663390, PHE vs BAS
  logFC(D142_PHE - D142_BAS) CDC20: -2,55
ProbeID ILMN_1663575, PHE vs BAS
  logFC(D142_PHE - D142_BAS) MGC87042: -2,77
ProbeID ILMN_1664855
  logFC(D142_PHE - D142_BAS) PPP1R14C: 2,96
ProbeID ILMN_1665510
  logFC(D142_PHE - D142_BAS) ERRFI1: 3,36
ProbeID ILMN_1666022
  logFC(D142_PHE - D142_BAS) TNFRSF10D: 3,48
ProbeID ILMN_1666305, PHE vs BAS
  logFC(D142_PHE - D142_BAS) CDKN3: -2,37
ProbeID ILMN_1666545
  logFC(D142_PHE - D142_BAS) GCNT1: -2,01
ProbeID ILMN_1666733
  logFC(D142_PHE - D142_BAS) IL8: 5,35
ProbeID ILMN_1667692
  logFC(D142_PHE - D142_BAS) PTGIS: -2,11
ProbeID ILMN_1667791
  logFC(D142_PHE - D142_BAS) PPFIA4: 2,71
ProbeID ILMN_1667893, PHE vs BAS
  logFC(D142_PHE - D142_BAS) TNS3: -2,61
ProbeID ILMN_1668345
  logFC(D142_PHE - D142_BAS) OAF: -2,06
ProbeID ILMN_1668861
  logFC(D142_PHE - D142_BAS) LOC732165: 2,33
ProbeID ILMN_1669119, PHE vs BAS
  logFC(D142_PHE - D142_BAS) LOC728946: -2,56
ProbeID ILMN_1669584
  logFC(D142_PHE - D142_BAS) ILF3: -2,03
ProbeID ILMN_1671478
  logFC(D142_PHE - D142_BAS) CKB: 2,73
ProbeID ILMN_1671703, PHE vs BAS
  logFC(D142_PHE - D142_BAS) ACTA2: -3,04
ProbeID ILMN_1671731
  logFC(D142_PHE - D142_BAS) AVPI1: 2,16
ProbeID ILMN_1672350
  logFC(D142_PHE - D142_BAS) JAM2: 2,37
ProbeID ILMN_1673521
  logFC(D142_PHE - D142_BAS) KISS1R: 3,05
ProbeID ILMN_1674243
  logFC(D142_PHE - D142_BAS) TFRC: 2,40
ProbeID ILMN_1674376
  logFC(D142_PHE - D142_BAS) ANGPTL4: 2,49
ProbeID ILMN_1675062
  logFC(D142_PHE - D142_BAS) MYL9: -2,11
ProbeID ILMN_1675947
  logFC(D142_PHE - D142_BAS) MT3: 4,91
ProbeID ILMN_1676088, PHE vs BAS
  logFC(D142_PHE - D142_BAS) MSRB3: -2,43
ProbeID ILMN_1676629
  logFC(D142_PHE - D142_BAS) INSIG2: 2,16
ProbeID ILMN_1676663, PHE vs BAS
  logFC(D142_PHE - D142_BAS) TNFRSF11B: -3,04
ProbeID ILMN_1676899
  logFC(D142_PHE - D142_BAS) YEATS2: 2,21
ProbeID ILMN_1677511
  logFC(D142_PHE - D142_BAS) PTGS2: 2,13
ProbeID ILMN_1678493, PHE vs BAS
  logFC(D142_PHE - D142_BAS) CHN1: -2,73
ProbeID ILMN_1678842
  logFC(D142_PHE - D142_BAS) THBS2: -2,24
ProbeID ILMN_1679041
  logFC(D142_PHE - D142_BAS) SLC3A2: 2,15
ProbeID ILMN_1679727
  logFC(D142_PHE - D142_BAS) CLK1: 2,72
ProbeID ILMN_1680139
  logFC(D142_PHE - D142_BAS) MAFF: 3,87
ProbeID ILMN_1680738, PHE vs BAS
  logFC(D142_PHE - D142_BAS) C5orf13: -2,41
ProbeID ILMN_1682599
  logFC(D142_PHE - D142_BAS) GPRC5A: 4,51
ProbeID ILMN_1682717
  logFC(D142_PHE - D142_BAS) IER3: 2,62
ProbeID ILMN_1683179
  logFC(D142_PHE - D142_BAS) RRAD: 2,75
ProbeID ILMN_1684114
  logFC(D142_PHE - D142_BAS) LOC286016: 2,09
ProbeID ILMN_1684158
  logFC(D142_PHE - D142_BAS) GPT2: 2,19
ProbeID ILMN_1684554
  logFC(D142_PHE - D142_BAS) COL16A1: -2,06
ProbeID ILMN_1685441, PHE vs BAS
  logFC(D142_PHE - D142_BAS) ASAP3: -2,35
ProbeID ILMN_1685714
  logFC(D142_PHE - D142_BAS) INHBB: 3,60
ProbeID ILMN_1686097, PHE vs BAS
  logFC(D142_PHE - D142_BAS) TOP2A: -3,07
ProbeID ILMN_1686116, PHE vs BAS
  logFC(D142_PHE - D142_BAS) THBS1: -3,00
ProbeID ILMN_1687301, PHE vs BAS
  logFC(D142_PHE - D142_BAS) VCAN: -2,38
ProbeID ILMN_1687751
  logFC(D142_PHE - D142_BAS) BAALC: -2,07
ProbeID ILMN_1689088, PHE vs BAS
  logFC(D142_PHE - D142_BAS) COLEC12: -3,75
ProbeID ILMN_1689111, PHE vs BAS
  logFC(D142_PHE - D142_BAS) CXCL12: -3,44
ProbeID ILMN_1689274
  logFC(D142_PHE - D142_BAS) NIPA1: 2,08
ProbeID ILMN_1690105
  logFC(D142_PHE - D142_BAS) STAT1: -2,04
ProbeID ILMN_1690125, PHE vs BAS
  logFC(D142_PHE - D142_BAS) PDLIM7: -2,57
ProbeID ILMN_1690921
  logFC(D142_PHE - D142_BAS) STAT2: -2,24
ProbeID ILMN_1691364, PHE vs BAS
  logFC(D142_PHE - D142_BAS) STAT1: -2,77
ProbeID ILMN_1691476, PHE vs BAS
  logFC(D142_PHE - D142_BAS) MYLK: -3,27
ProbeID ILMN_1691884
  logFC(D142_PHE - D142_BAS) STC2: 3,81
ProbeID ILMN_1692785
  logFC(D142_PHE - D142_BAS) KLHL21: 2,54
ProbeID ILMN_1692938
  logFC(D142_PHE - D142_BAS) PSAT1: 2,74
ProbeID ILMN_1693334
  logFC(D142_PHE - D142_BAS) P4HA1: 3,46
ProbeID ILMN_1694240
  logFC(D142_PHE - D142_BAS) MAP2K1: 2,11
ProbeID ILMN_1694810
  logFC(D142_PHE - D142_BAS) PANX2: 2,42
ProbeID ILMN_1695658, PHE vs BAS
  logFC(D142_PHE - D142_BAS) KIF20A: -3,25
ProbeID ILMN_1696537
  logFC(D142_PHE - D142_BAS) DDIT4L: -2,12
ProbeID ILMN_1696601
  logFC(D142_PHE - D142_BAS) VARS: -2,08
ProbeID ILMN_1699265
  logFC(D142_PHE - D142_BAS) TNFRSF10B: 2,54
ProbeID ILMN_1699644
  logFC(D142_PHE - D142_BAS): 2,20
